Source: patent publication US10745408B2, “Biologically active taxane analogs and methods of treatment by oral administration” (Tapestry Pharmaceuticals, Inc., priority 2007, dated 2020)

What was measured:
[1] = tested on: bovine microtubule protein; assay: In vitro ED50 MT polymerization study (DAPI fluorescence tubulin assay); assay type: biochemical; settings: for ED50 Compound/ED50 Paclitaxel: ratio; for EC50: tubulin polymerization, 37° C. 30 minutes, maximum assembly = 25 μM paclitaxel
Experimental: In Vitro ED50 MT Polymerization Study
In this tubulin binding assay, microtubule protein (MTP) is used as a substrate. The assay contains bovine tubulin plus microtubule associated proteins (MAP). MTP is polymerized into microtubules in the presence of DAPI (4′,6′-diamidino-2-phenylindole), a fluorescent compound. DAPI binds to tubulin; when microtubules are formed and there is an enhancement of fluorescence. The microtubule formation is measured as a function of time, using a fluorescence plate reader. […] The method used is based on the procedure published by Donna M. Barron, et al, “Fluorescence-based high-throughput assay for antimicrotuble drugs” Analytical Biochemistry, 315: 49-56, 2003, which is incorporated by reference in its entirety. The excitation wavelength, in that assay, was set at 370 nm and the emission wavelength was set at 450 nm for the DAPI experiments.
A Bio-Tek FL 600 microplate Fluorescence Reader was used to measure the relative level of fluorescence in the DAPI assay.
Assays were conducted in 96-well plates. Each well contained a total volume of 0.1 mL consisting of PEM buffer (0.1 M Pipes, 1 mM EGTA, 1 mM MgCl2, pH 6.9), 0.2 mg bovine microtubule protein, and 10 μg of DAPI. […] The final DMSO concentration was 4%. The plates were incubated at 37° C. for 30 minutes and read in a fluorescence plate reader using an excitation wavelength of 360 nm and an emission wavelength of 460 nm. Fluorescence values were corrected for the sample without compound.
Experiments were done twice in triplicate. Results were subsequently combined and fit to a non-linear regression program.

[2] = tested on: U251 human CNS tumor cells (glioblastoma); settings: temozolomide 80 mg/kg/dose po q4d×3
Text: Tumor Model: Each animal was implanted with one million U251 human CNS tumor cells from an in vitro cell line by ic injection with a 25 gauge needle. The day of tumor implantation (May 24, 2006) was designated as day 0. A sufficient number of mice were implanted so that animals with body weights in a range as narrow as possible were selected for the trial on the day of treatment initiation (day 1 after tumor implantation). Animals were randomly assigned to the treatment groups and individually identified by earmark codes.
A portion of this solution was then diluted with the complete vehicle to achieve the lower dosing concentration of 1.2 mg/mL. […] Temozolomide (Temodar, Schering Corporation) was prepared on each day of injection in Klucel+tween 80 at a concentration of 4 mg/mL. Temozolomide was administered within 5 minutes of formulation on the basis of exact body weight using a volume of 0.2 mL/10 g of body weight.
Data Collection: Animal health surveillance was conducted and mortality data were collected daily. The animals were weighed twice weekly starting with the first day of treatment.
Study Duration: The study was terminated 100 days after tumor implantation. Any animal found moribund or whose body weight dropped below 14 g was euthanized prior to study termination.
Parameters Evaluated: Number of 100-day survivors, median day of death, and the increase in lifespan based on median day of death and expressed as a percentage (% ILS), median survival time and the % ILS based on median survival time.

SMILES | ED50 Compound/ED50 Paclitaxel [1] | EC50 [1] [µM] | ILS based on median survival time [2] [%] | median day of death [2] [days] | median survival time [2] [days] | survivors day 100 [2]
CC(=O)O[C@@]12CO[C@@H]1C[C@H](O)[C@@]1(C)C(=O)[C@H](O)C3=C(C)[C@@H](OC(=O)[C@H](O)[C@@H](NC(=O)OC(C)(C)C)c4ccccc4)C[C@@](O)([C@@H](OC(=O)c4ccccc4)[C@H]21)C3(C)C [Docetaxel] | 1.07 | 3.18 ± 0.45 |  |  |  | 
C/C(=C\c1csc(C)n1)[C@@H]1C[C@@H]2O[C@]2(C)CCC[C@H](C)[C@H](O)[C@@H](C)C(=O)C(C)(C)[C@@H](O)CC(=O)O1 [Epothilone B] | 1.11 | 3.31 ± 0.51 |  |  |  | 
Cn1nnc2c(C(N)=O)ncn2c1=O [temozolomide, Temozolomide] |  |  | 400 | 48 | 50 | 100 = 1)
